{"source": "patent US20230240973A1", "about": "“CANNABIS SATIVA EXTRACTS AND THEIR USES” (LINNEA SA, priority 2020, published 2023)", "key": {"[1]": {"tested_on": "HaCaT cells", "test": "MTT cytotoxicity assay on HaCaT cells", "type": "cell-based, human", "settings": "6 or 24 hours (FIG. 4)", "protocol": "(§1) The cytotoxicity tests were performed using the MTT assay, capable of measuring the mitochondrial succinic dehydrogenase enzyme, whose activity indicates cell viability, on human keratinocytes or fibroblasts incubated with the Cannabis sativa extract according to example 2 and with pure CBD. The integrity of the morphology before and after 6 and 24 hour incubation was assessed by light microscopy.\n(§2) HaCaT cells, spontaneously immortalized human keratinocyte line (Boukamp et al., 1988) and normal human dermal fibroblasts (HDF) were cultured in DMEM (Gibco, Life Technologies, Monza, Italy) supplemented with 10% heat inactivated fetal bovine serum (Euroclone SpA, Milan, Italy), L-glutamine (2 mM; Gibco, Life Technologies, Monza, Italy), penicillin (100 U/ml), and streptomycin ([…]; Gibco, Life Technologies, Monza, Italy), at 37° C. in a humidified atmosphere containing 5% CO2. Every 4 days, at 80-90% confluence, the cells were detached using 0.25% trypsin-EDTA (Gibco, Life Technologies, Monza, Italy), counted and placed in a new flask at a density of 1.5×10^6 cells per flask, to allow for growth. For the purpose of the present analyses, the cells were seeded in 24-well plates and incubated with the extract according to the present invention or pure CBD at increasing concentrations. […]"}, "[2]": {"tested_on": "IL-8", "test": "IL-8 secretion in TNF-α stimulated HaCaT cells", "type": "cell-based", "settings": "human keratinocytes (HaCaT), TNF-α 10 ng/ml", "protocol": "(§3) To evaluate the anti-inflammatory activity of the extract according to the present invention, the in vitro effect after exposure to pro-inflammatory stimuli on the expression levels of factors known to be involved in inflammatory processes was evaluated.\n(§4) In particular, the following were chosen as inflammation markers: • IL-8, a cytokine secreted by keratinocytes and fibroblasts following inflammation and particularly involved in skin diseases such as psoriasis; • MMP-9, a metalloprotease which degrades the extracellular matrix and which is activated following chronic skin inflammations such as dermatitis and psoriasis; • VEGF, the release of which by keratinocytes leads to the formation of the classic psoriatic plaques in patients suffering from this pathology."}, "[3]": {"tested_on": "MMP-9", "test": "MMP-9 release in TNF-α stimulated HDF cells", "type": "cell-based", "settings": "human fibroblasts (HDF)", "text": "(§5) FIG. 7: effect evaluated on TNF-α stimulated HDF cells (A) on transcription induced by NF-kB and on release of (B) IL8, (C) MMP-9 following exposure to the indicated doses of the composition according to the present invention and, for comparative purposes, (D) on NF-kB-induced transcription and (E) IL8, (F) MMP-9 release following exposure to pure CBD.\nas §3, §4\n(§6) FIG. 7 reports the results obtained in human fibroblasts."}, "[4]": {"tested_on": "NF-kB", "test": "NF-kB driven transcription in TNF-α stimulated HaCaT cells", "type": "cell-based", "settings": "human keratinocytes (HaCaT), read-out: IC50 of inhibition of NF-kB-driven transcription", "protocol": "as §3\nThe nuclear transcription factor NF-kB is activated by pro-inflammatory stimuli and activates the transcription of genes that amplify the inflammatory process, such as MMP-9, cytokines and growth factors such as VEGF."}, "[5]": {"tested_on": "IL-8", "test": "IL-8 release in TNF-α stimulated HDF cells", "type": "cell-based", "settings": "human fibroblasts (HDF)", "text": "as §5, §3, §4, §6"}, "[6]": {"tested_on": "VEGF", "test": "VEGF secretion in TNF-α stimulated HaCaT cells", "type": "cell-based", "settings": "human keratinocytes (HaCaT), TNF-α 10 ng/ml", "protocol": "as §3, §4"}, "[7]": {"tested_on": "MMP-9", "test": "MMP-9 secretion in TNF-α stimulated HaCaT cells", "type": "cell-based", "settings": "human keratinocytes (HaCaT), TNF-α 10 ng/ml", "protocol": "as §3, §4"}, "[8]": {"tested_on": "HDF cells", "test": "MTT cytotoxicity assay on HDF cells", "type": "cell-based, human", "settings": "6 or 24 hours (FIG. 3)", "protocol": "as §1, §2"}}, "data": [{"smiles": "C=C(C)[C@@H]1CCC(C)=C[C@H]1c1c(O)cc(CCCCC)cc1O", "note": "[CBD, cannabidiol]", "values": [{"measurement": "concentrations showing cytotoxic effects", "setting": "[1]", "result": "above 5 μM"}, {"measurement": "effect on expression levels of IL-8", "setting": "[2]", "result": "no effect"}, {"measurement": "effect on release of MMP-9", "setting": "[3]", "result": "no effect"}, {"measurement": "IC50", "setting": "[4]", "result": 2850, "unit": "nM"}, {"measurement": "effect on release of IL-8", "setting": "[5]", "result": "no effect"}, {"measurement": "effect on expression levels of VEGF", "setting": "[6]", "result": "modest"}, {"measurement": "effect on expression levels of MMP-9", "setting": "[7]", "result": "modest"}, {"measurement": "concentrations showing cytotoxic effects", "setting": "[8]", "result": "above 2.5 μM"}]}]}
